Positions of bridges follow the written chain, without caps; N, C: chain ends. Non-standard residues stand in square brackets, D forms with d. Residues, ends and D or L forms follow the SMILES beside them. *: point of attachment. GlcA(β-D,1-O-dodecyl) = CCCCCCCCCCCCO[C@@H]1O[C@H](C(=O)*)[C@@H](O)[C@H](O)[C@H]1O; βGlcA(1-OMe) = CO[C@@H]1O[C@H](C(=O)*)[C@@H](O)[C@H](O)[C@H]1O; Phe(2,4,6-Me3) = Cc1cc(C)c(C[C@H](N)C(=O)O)c(C)c1; Dmt = Cc1cc(O)cc(C)c1C[C@H](N)C(=O)O; hArg = N=C(N)NCCCC[C@H](N)C(=O)O; Nle = CCCC[C@H](N)C(=O)O; Ac5c = NC1(C(=O)O)CCCC1; Aib = CC(C)(N)C(=O)O
Legend:
PTH receptor (PTHR1) = biological target: T1, PTH receptor (PTHR1) (Homo sapiens, UniProt Q03431); assay: PTH1 cellular assay, cAMP, agonist mode (SaOS2 cells, Cerep); format: cell-based; conditions: for Emax: SAOS-2, read-out: Maximal response (% PTHrP)
T1 construct: Cerep SA
T1 sequence (Q03431 27-593): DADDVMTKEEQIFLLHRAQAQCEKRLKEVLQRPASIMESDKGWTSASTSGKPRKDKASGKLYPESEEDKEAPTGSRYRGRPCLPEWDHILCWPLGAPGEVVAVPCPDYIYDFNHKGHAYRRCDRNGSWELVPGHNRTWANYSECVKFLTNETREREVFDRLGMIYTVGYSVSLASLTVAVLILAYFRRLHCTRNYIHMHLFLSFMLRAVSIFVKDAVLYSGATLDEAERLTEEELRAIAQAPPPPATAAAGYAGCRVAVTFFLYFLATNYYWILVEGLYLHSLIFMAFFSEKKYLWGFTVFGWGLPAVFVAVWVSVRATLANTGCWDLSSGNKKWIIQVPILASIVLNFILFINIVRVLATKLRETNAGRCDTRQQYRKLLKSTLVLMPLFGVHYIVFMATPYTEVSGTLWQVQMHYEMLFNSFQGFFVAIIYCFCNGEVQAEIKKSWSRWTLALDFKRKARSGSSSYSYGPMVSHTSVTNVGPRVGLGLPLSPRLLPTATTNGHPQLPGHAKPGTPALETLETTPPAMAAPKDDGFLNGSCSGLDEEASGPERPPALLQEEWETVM
Method: Compounds were weighed precisely in an amount of approximately 1 mg and assayed in standard cellular assays (cerep SA). The readout is the amount of cAMP generated in the cells treated with the test compounds, in either agonist or antagonist mode.
Compounds were dissolved in water and diluted in assay buffer containing 1% bovine serum albumin.

mu opioid receptor = biological target: T2, mu opioid receptor (Homo sapiens, UniProt P35372); assay: mu opioid receptor cellular assay (MOP), agonist mode, cAMP readout (Cerep); format: cell-based
T2 construct: Cerep
Method: Compounds were weighed precisely in an amount of approximately 2 mg and assayed in standard cellular assays by the contract research organization Cerep, Inc. (Pullman, Wash.) as executed at their subsidiary, Cerep SA (Le Bois l'Eveque, France). The readout is the amount of cAMP generated in the cells treated with the test compounds, in either agonist or antagonist mode. The assays used were the mu opioid receptor cellular assay (MOP in agonist and antagonist mode), the delta2 opioid receptor cellular assay (DOP in agonist and antagonist mode) and the kappa opioid receptor cellular assay (KOP in agonist and antagonist mode). The assays used are described in Wang, J. B., et al. (1994) FEBS Lett 338: 217-222, Law, P. Y. and Loh, H. H. (1993) Mol Pharmacol 43: 684-693, and Avidor-Reiss, T., et al. (1995) FEBS Lett 361: 70-74. The stimulant for the cells in the DOR antagonist assay was 3×10E-8M DPDPE, a well-accepted DOR literature standard.

db/db mice = assay: db/db mice, blood glucose after s.c. dosing; format: in vivo, mouse; conditions: db/db mice, s.c., 250 nmole/kg
Method: The 60 female db/db B6BKS (D) Leprdb/J (strain 000697) mice for this study were approximately 8 to 9 weeks old at arrival (Jackson Laboratory, Bar Harbor, Me.). […] One group of 8 female mice served as the vehicle control and received the vehicle, 0.2% BSA in saline, pH 7.4. One additional group of 8 female mice received the positive control article, liraglutide, at a dose level of 50 nmoles/kg. The test articles, vehicle, and positive control article were administered on Day 1, at approximately 0, 7, and 24 hours during the study via subcutaneous injection at a dose volume of 6 mL/kg.
Clinical observations were conducted at receipt, prior to randomization, and daily from Days 1 to 5. Body weights were measured and recorded at receipt, prior to randomization, and daily from Days 1 to 5. Food consumption was measured and recorded daily from Days 1 to 5. Blood samples for glucose analysis were collected pretest (Day −3) and at 0, 1, 2, 4, 8, 10, 24, 48, 72, and 96 hours following the first dose on Day 1. At study termination all animals were euthanized and the carcasses were discarded without further evaluation.

T2 sequence (P35372 whole entry): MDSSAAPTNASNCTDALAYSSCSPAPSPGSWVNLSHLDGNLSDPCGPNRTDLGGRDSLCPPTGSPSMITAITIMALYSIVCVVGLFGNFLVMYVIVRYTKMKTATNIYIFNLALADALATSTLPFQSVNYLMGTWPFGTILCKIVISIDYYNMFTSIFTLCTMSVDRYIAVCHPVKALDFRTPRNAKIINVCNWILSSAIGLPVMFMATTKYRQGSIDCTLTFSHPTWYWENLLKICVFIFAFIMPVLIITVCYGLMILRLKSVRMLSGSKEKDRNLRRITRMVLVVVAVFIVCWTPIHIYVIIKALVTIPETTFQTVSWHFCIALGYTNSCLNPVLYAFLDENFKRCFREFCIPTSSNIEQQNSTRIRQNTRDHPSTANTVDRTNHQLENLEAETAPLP

SMILES	Characterization (PTH receptor (PTHR1))	Emax (PTH receptor (PTHR1)) [%]	Mean Blood Glucose (db/db mice; 0 hr) [mg/dL]	Mean Blood Glucose (db/db mice; 10 hr) [mg/dL]	Mean Blood Glucose (db/db mice; 24 hr) [mg/dL]	Mean Blood Glucose (db/db mice; 48 hr) [mg/dL]	further results
CCCCCCCCCCCCO[C@@H]1O[C@H](C(=O)NCCCC[C@H](NC(=O)[C@H](CCC(N)=O)NC(=O)[C@@H](NC(=O)[C@H](Cc2c[nH]c3ccccc23)NC(=O)[C@H](CCCNC(=N)N)NC(=O)[C@H](C)NC(=O)[C@H](CCCCNC(=N)N)NC(=O)[C@H](CCC(N)=O)NC(=O)[C@H](Cc2c[nH]cn2)NC(=O)[C@H](CCCC)NC(=O)[C@H](CC(C)C)NC(=O)[C@H](CCC(N)=O)NC(=O)[C@@H](NC(=O)[C@H](CCC(=O)O)NC(=O)C(C)(C)NC(=O)[C@@H](NC(=O)C2(N)CCCC2)C(C)C)[C@@H](C)CC)[C@@H](C)CC)C(N)=O)[C@@H](O)[C@H](O)[C@H]1O [EU-204] (H-[Ac5c]V[Aib]EIQL[Nle]HQ[hArg]ARWIQK(GlcA(β-D,1-O-dodecyl))-NH2)	agonist	135	–	–	–	–	EC50 (PTH receptor (PTHR1)): 20 nM
CCCCCCCCCCCCO[C@@H]1O[C@H](C(=O)NCCCC[C@H](NC(=O)C(C)(C)NC(=O)[C@H](CCC(N)=O)NC(=O)[C@@H](NC(=O)[C@H](Cc2c[nH]c3ccccc23)NC(=O)[C@H](CCCNC(=N)N)NC(=O)[C@H](C)NC(=O)[C@H](CCCCNC(=N)N)NC(=O)[C@H](CCC(N)=O)NC(=O)[C@H](Cc2c[nH]cn2)NC(=O)[C@H](CCCC)NC(=O)[C@H](CC(C)C)NC(=O)[C@H](CCC(N)=O)NC(=O)[C@@H](NC(=O)[C@H](CCC(=O)O)NC(=O)C(C)(C)NC(=O)[C@@H](NC(=O)C2(N)CCCC2)C(C)C)[C@@H](C)CC)[C@@H](C)CC)C(N)=O)[C@@H](O)[C@H](O)[C@H]1O [EU-207] (H-[Ac5c]V[Aib]EIQL[Nle]HQ[hArg]ARWIQ[Aib]K(GlcA(β-D,1-O-dodecyl))-NH2; N-terminus assumed)	agonist	110	–	–	–	–	–
CCCCCCCCCCCCO[C@@H]1O[C@H](C(=O)NCCCC[C@H](NC(=O)[C@H](CC(C)C)NC(=O)[C@H](Cc2ccccc2)NC(=O)[C@@H]2CCC(=O)NCCCC[C@H](NC(=O)[C@H](CC(=O)O)NC(=O)[C@H](CCC(N)=O)NC(=O)[C@@H](NC(=O)[C@H](Cc3c[nH]c4ccccc34)NC(=O)[C@H](CCCNC(=N)N)NC(=O)[C@H](C)NC(=O)[C@H](CCCCNC(=N)N)NC(=O)[C@H](CCC(N)=O)NC(=O)[C@H](Cc3c[nH]cn3)NC(=O)[C@H](CCCC)NC(=O)[C@H](CC(C)C)NC(=O)[C@H](CCC(N)=O)NC(=O)[C@@H](NC(=O)[C@H](CCC(=O)O)NC(=O)C(C)(C)NC(=O)[C@@H](NC(=O)C3(N)CCCC3)C(C)C)[C@@H](C)CC)[C@@H](C)CC)C(=O)N[C@@H](CCCNC(=N)N)C(=O)N[C@@H](CCCNC(=N)N)C(=O)N[C@@H](CCCNC(=N)N)C(=O)N2)C(=O)NC(C)(C)C(N)=O)[C@@H](O)[C@H](O)[C@H]1O [EU-284] (H-[Ac5c]V[Aib]EIQL[Nle]HQ[hArg]ARWIQDKRRREFLK(GlcA(β-D,1-O-dodecyl))[Aib]-NH2; lactam 18-22; N-terminus assumed)	agonist	110	–	–	–	–	–
CO[C@@H]1O[C@H](C(=O)NCCCC[C@H](NC(=O)[C@H](Cc2c(C)cc(C)cc2C)NC(=O)[C@@H]2CCCN2C(=O)[C@@H](N)Cc2c(C)cc(O)cc2C)C(N)=O)[C@@H](O)[C@H](O)[C@H]1O [EU-A101, Dmt-Pro-Tmp-Lys(C1-glucuronyl)-NH2] (H-[Dmt]P[Phe(2,4,6-Me3)]K(βGlcA(1-OMe))-NH2)	–	–	–	–	–	–	Characterization (MOP) (mu opioid receptor): pure agonist; EC50 (mu opioid receptor): 13 nM
CO[C@@H]1O[C@H](C(=O)NCCCC[C@@H](NC(=O)[C@@H](N)Cc2c(C)cc(O)cc2C)C(=O)N[C@@H](Cc2c(C)cc(C)cc2C)C(=O)N[C@@H](Cc2ccccc2)C(N)=O)[C@@H](O)[C@H](O)[C@H]1O [EU-A107, Dmt-D-Lys(C1-glucuronyl)-Tmp-Phe-NH2] (H-[Dmt][dK](βGlcA(1-OMe))[Phe(2,4,6-Me3)]F-NH2; N-terminus assumed)	–	–	–	–	–	–	Characterization (MOP) (mu opioid receptor): Agonist; EC50 (mu opioid receptor): 60 nM
CCCCCCCCO[C@@H]1O[C@H](C(=O)NCCCC[C@H](NC(=O)[C@@H](NC(=O)[C@H](Cc2ccccc2)NC(=O)[C@H](CCC(=O)O)NC(=O)[C@@H]2CCCCNC(=O)CC[C@H](NC(=O)[C@H](CC(=O)O)NC(=O)[C@H](CC(C)C)NC(=O)[C@H](Cc3ccc(O)cc3)NC(=O)[C@H](CCCCN)NC(=O)[C@H](CO)NC(=O)[C@H](Cc3ccc(O)cc3)NC(=O)[C@H](CC(=O)O)NC(=O)[C@H](CO)NC(=O)[C@@H](NC(=O)[C@H](Cc3ccccc3)NC(=O)[C@@H](NC(=O)CNC(=O)[C@H](CCC(N)=O)NC(=O)C(C)(C)NC(=O)[C@@H](N)Cc3c[nH]cn3)[C@@H](C)O)[C@@H](C)O)C(=O)N[C@@H](CCC(N)=O)C(=O)N[C@@H](C)C(=O)N[C@@H](C)C(=O)N2)[C@@H](C)CC)C(=O)N[C@@H](Cc2c[nH]c3ccccc23)C(=O)N[C@@H](CC(C)C)C(=O)N[C@@H](CC(C)C)C(=O)N[C@@H](CCC(N)=O)C(=O)N[C@H](C(N)=O)[C@@H](C)O)[C@@H](O)[C@H](O)[C@H]1O [EU-A992]	–	–	405	104	112	130	–
CCCCCCCCCCO[C@@H]1O[C@H](C(=O)NCCCC[C@H](NC(=O)[C@@H](NC(=O)[C@H](Cc2ccccc2)NC(=O)[C@H](CCC(=O)O)NC(=O)[C@@H]2CCCCNC(=O)CC[C@H](NC(=O)[C@H](CC(=O)O)NC(=O)[C@H](CC(C)C)NC(=O)[C@H](Cc3ccc(O)cc3)NC(=O)[C@H](CCCCN)NC(=O)[C@H](CO)NC(=O)[C@H](Cc3ccc(O)cc3)NC(=O)[C@H](CC(=O)O)NC(=O)[C@H](CO)NC(=O)[C@@H](NC(=O)[C@H](Cc3ccccc3)NC(=O)[C@@H](NC(=O)CNC(=O)[C@H](CCC(N)=O)NC(=O)C(C)(C)NC(=O)[C@@H](N)Cc3c[nH]cn3)[C@@H](C)O)[C@@H](C)O)C(=O)N[C@@H](CCC(N)=O)C(=O)N[C@@H](C)C(=O)N[C@@H](C)C(=O)N2)[C@@H](C)CC)C(=O)N[C@@H](Cc2c[nH]c3ccccc23)C(=O)N[C@@H](CC(C)C)C(=O)N[C@@H](CC(C)C)C(=O)N[C@@H](CCC(N)=O)C(=O)N[C@H](C(N)=O)[C@@H](C)O)[C@@H](O)[C@H](O)[C@H]1O [EU-A1167]	–	–	379	171	117	113	–
CCCCCCCCCCCO[C@@H]1O[C@H](C(=O)NCCCC[C@H](NC(=O)[C@@H](NC(=O)[C@H](Cc2ccccc2)NC(=O)[C@H](CCC(=O)O)NC(=O)[C@@H]2CCCCNC(=O)CC[C@H](NC(=O)[C@H](CC(=O)O)NC(=O)[C@H](CC(C)C)NC(=O)[C@H](Cc3ccc(O)cc3)NC(=O)[C@H](CCCCN)NC(=O)[C@H](CO)NC(=O)[C@H](Cc3ccc(O)cc3)NC(=O)[C@H](CC(=O)O)NC(=O)[C@H](CO)NC(=O)[C@@H](NC(=O)[C@H](Cc3ccccc3)NC(=O)[C@@H](NC(=O)CNC(=O)[C@H](CCC(N)=O)NC(=O)C(C)(C)NC(=O)[C@@H](N)Cc3c[nH]cn3)[C@@H](C)O)[C@@H](C)O)C(=O)N[C@@H](CCC(N)=O)C(=O)N[C@@H](C)C(=O)N[C@@H](C)C(=O)N2)[C@@H](C)CC)C(=O)N[C@@H](Cc2c[nH]c3ccccc23)C(=O)N[C@@H](CC(C)C)C(=O)N[C@@H](CC(C)C)C(=O)N[C@@H](CCC(N)=O)C(=O)N[C@H](C(N)=O)[C@@H](C)O)[C@@H](O)[C@H](O)[C@H]1O [EU-A1168]	–	–	380	133	169	164	–
